The test system of assay [1] is Ire1. Put plainly: Summary statement of Ire1 activation or inhibition (assay not specified).
Assay [2] deals with human Ire1 (Homo sapiens, UniProt O75460). Put plainly: In vitro cleavage of 32P-stem-loop RNA by human Ire1. Format: biochemical. The note with it: AD series of Ire1 modulators. On the procedure:
(§1) RNA cleavage reactions were conducted at 30° C. in buffer containing 20 mM HEPES (pH 7.5), 70 mM NaCl, 2 mM ADP (pH 7.0), 2 mM Mg(OAc)2, 5 mM DTT, 5% glycerol, less than 1 nM ^32p-labeled RNA substrate, and 3 nM-20 μM Ire1. Reaction solutions and buffers were designed using Biochem Lab Solutions 3.5. Reactions were prepared such that 1 μl of RNA was added to 9 μl of pre-warmed reaction mixture containing all components except RNA. Typically, 3-10 minute time courses were collected starting from 5 seconds for the first time point. At time intervals, 1 μl of solution was withdrawn from each reaction and mixed wish 6 μl stop solution containing 10 M urea, 0.1% SDS, 0.1 mM EDTA, 0.05% xylene cyanol, and 0.05% bromophenol blue. The samples were separated by a denaturing 10% PAGE and exposed on a phosphor storage screen. The screens were scanned on a Storm or a Typhoon instrument and quantified using ImageQuant 5.0 or GelQuant.NET 1.4 programs. The data were plotted and fit in SigmaPlot 6.0.
In vitro cleavage of ^32P-stem-loop RNA by human Ire1, with AD series of Ire1 modulators gave the following results: […]

In assay [3] the target is WT Src (Homo sapiens, UniProt P12931). The assay can be described thus: c-Src kinase cross-reactivity assay. In kind it is biochemical. Here is the method: (§2) Assays for cross-reactivity with Src and Abl were also conducted. Purified c-Src or Abl were diluted in kinase reaction buffer (10 mM HEPES (pH 7.2), 10 mM MgCl2, 0.2 mM DTT) to a concentration of approximately 10 nM and pre-incubated with 1 mg/mL BSA, 2.5% (v/v) DMSO, 133 μM peptide (sequence EAIYAAPFKKK for Abl and EIYGEFKKK for c-Src), and varying concentrations of inhibitor. Kinase reactions were initiated by the addition of […] cold ATP supplemented with 5 mCi γ^32P ATP and allowed to proceed at room temperature (RT). At 10 minutes […] of the reactions were spotted onto phosphocellulose sheets (P81, Whatman) and subsequently soaked in was buffer (1.0% (v/v) phosphoric acid). The sheets were washed five times in buffer, dried, and transferred radioactivity was measured by phosphorimaging using a Typhoon™ scanner (Molecular Dynamics). Radioactive counts were quantified using ImageQuant software, and titration data were fit to a sigmoidal dose response to derive IC50 values using the Prism® software package. Dose responses were based on a 12 point inhibitor titration, using ⅓ dilutions starting from […].
Sequence of WT Src (P12931 whole entry): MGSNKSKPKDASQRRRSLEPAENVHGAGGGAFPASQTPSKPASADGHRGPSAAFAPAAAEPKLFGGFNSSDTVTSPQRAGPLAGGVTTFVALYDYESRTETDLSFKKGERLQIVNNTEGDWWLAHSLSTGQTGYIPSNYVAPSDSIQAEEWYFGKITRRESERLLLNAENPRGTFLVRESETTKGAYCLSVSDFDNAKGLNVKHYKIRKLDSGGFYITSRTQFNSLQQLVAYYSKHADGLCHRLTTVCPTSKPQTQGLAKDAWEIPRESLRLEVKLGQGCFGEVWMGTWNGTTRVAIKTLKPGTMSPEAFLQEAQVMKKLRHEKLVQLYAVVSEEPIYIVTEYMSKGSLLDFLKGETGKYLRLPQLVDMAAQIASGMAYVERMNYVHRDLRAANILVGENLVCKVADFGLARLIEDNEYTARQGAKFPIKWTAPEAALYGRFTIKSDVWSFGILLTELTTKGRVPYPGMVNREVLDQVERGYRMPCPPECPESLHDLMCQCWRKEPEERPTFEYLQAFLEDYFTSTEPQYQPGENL

Assay [4] concerns the target WT Abl (Homo sapiens, UniProt P00519). Put plainly: Abl kinase cross-reactivity assay. In kind it is biochemical. On the procedure:
as §2

The target in assay [5] is T1, Ire1KR32 (Saccharomyces cerevisiae, UniProt P32361).
T1 construct: Overview of the Ire1 constructs; GST (N); made in house; host or cells: E. coli BL21 CodonPlus (RIPL)
T1 sequence (P32361 with tags, fused parts or gaps): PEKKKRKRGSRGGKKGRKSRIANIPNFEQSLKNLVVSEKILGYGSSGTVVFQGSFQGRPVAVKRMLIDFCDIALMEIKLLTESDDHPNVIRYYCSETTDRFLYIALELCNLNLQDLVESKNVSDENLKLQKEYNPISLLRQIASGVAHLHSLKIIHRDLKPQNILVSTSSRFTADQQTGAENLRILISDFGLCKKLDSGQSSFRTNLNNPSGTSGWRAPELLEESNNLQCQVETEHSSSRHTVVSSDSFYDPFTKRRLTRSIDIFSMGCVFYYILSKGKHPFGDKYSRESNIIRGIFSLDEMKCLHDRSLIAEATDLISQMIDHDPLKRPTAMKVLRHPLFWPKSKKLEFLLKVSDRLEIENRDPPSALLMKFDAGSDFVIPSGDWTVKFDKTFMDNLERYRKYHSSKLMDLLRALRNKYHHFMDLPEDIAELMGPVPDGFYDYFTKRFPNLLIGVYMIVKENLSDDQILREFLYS
Put plainly: RNase cleavage assay with Ire1 cytosolic constructs (Ire1KR32), co-factors and kinase inhibitors. In kind it is biochemical. The note with it: for effect of EDTA (chelation of magnesium) on RNase activity of Ire1KR32 stimulated by the substance: FIG. 3F; for activation of the RNase of Ire1KR32: FIG. 3A. Here is the method: as §1
Variants of the cytosolic portion of Ire1 that contain the kinase and the RNase domains (Ire1KR) and Ire1KR extended by 24 (Ire1KR24) or 32 (Ire1KR32) amino acids towards the N-terminus (FIG. 1A, FIG. 1C, FIG. 7) were prepared. These additional amino acid extensions are part of a ˜100 amino acid-long linker domain that tethers the kinase/RNase domains to the transmembrane domain. All three constructs cleaved site-specifically 5′-32p-labeled stem-loop oligoribonucleotides 14 derived from the XBP1 mRNA (FIG. 1B, FIG. 8). […] No ADP.Mg co-factor was required for the cooperative activation of the RNase.
Ire1KR32 was co-crystallized with inhibitors that were designed to target CDK2 and EGFR kinases. Certain kinase inhibitors fully activated the RNase function of Ire1 (FIG. 3A). This is the first example of wild-type Ire1 activation by synthetic compounds.
Crystals obtained with the inhibitor APY29 allowed the structure determination of the Ire1KR32-APY29 complex at 3.9 Å resolution. A well-resolved density for the inhibitor molecule was found in the ATP binding pocket of the Ire1 kinase domain (FIG. 3B). APY29 forms an extensive hydrogen-bonding network with the protein backbone formed by E746, L747, and C748 (FIG. 3C). Hydrogen bonds are likely to also form with two side chains at the active site, N751, and D828. […] Manual fitting of sunitinib guided by know structures of kinase.inhibitor complexes (e.g., PDB IDs 2G9X and 2F4J) predicts that the compound fills the nucleobase site, but not the sugar and the phosphate sub-sites. […] AIN54 could not be readily fit to the ATP pocket due to steric clashes arising partly because of the unusual position of beta strand β1 that covers the nucleotide-binding pocket of the Ire1 kinase.
This structural difference provides an excellent tool to test the role of magnesium in the RNase activity of Ire1. Accordingly, the effect of EDTA on the RNase activity of Ire1KR32 was examined.

Assay [6] has as its system Xbp-1 mRNA splicing (UPR activation through Ire1) in HEK293 cells. The assay can be described thus: XBP-1 mRNA splicing by RT-PCR in HEK293 cells (UPR). In kind it is cell-based, mammalian. The note with it: for % splicing mRNA XBP-I Average: Hek293 cells treated for 4 hrs, RT-PCR. On the procedure:
The effect of tunicamycin, SU11248, DJM2005, APY24, and APY29 on Ire1 activity was tested in mammalian cells using HEK293 cells as a model system. Cells were treated according to the methods described in Lin J H et al., Science 318:944 (2007). After treatment with the corresponding agents for the indicated time, Xbp-1 mRNA splicing was determined by RT-PCR. Unspliced (u) and spliced (s) Xbp1-mRNA products are indicated and serve as a measure of UPR activation through Ire1.
Exemplary compounds were assayed for their effect on UPR. Results are set forth in FIGS. 18-19 and in the table below.

The subject of assay [7] is XBP1-GFP reporter in Hek293-FT cells. Put plainly: FACS on Hek293-FT cells transfected with XBP1-GFP reporter. Particulars: treated for 24 hrs. In kind it is cell-based. Here is the method: Exemplary compounds were assayed and the results are set froth in the table below.
In assay [8] the target is T2, yIre1 (Saccharomyces cerevisiae, UniProt P32361).
T2 construct: GST (N); made in house; host or cells: E. coli BL21 CodonPlus (RIPL)
T2 sequence (P32361 with tags, fused parts or gaps limits assumed): T1 sequence (P32361 with tags, fused parts or gaps)
Put plainly: RNA cleavage-based yIre1 activation assay. Format: biochemical, yeast. On the set-up: unit not given here. Particulars: 3 μM yIre1, stem loop RNA, 15 μM effector. On the procedure: The RNase Cleavage Assay.
as §1
RNA cleavage can be used to assess yIre1 activation as shown by FIG. 20 and the table below (3 μM yIre1, stem loop RNA, 15 μM effector): […]

We go through 7 compounds from patent US9382230B2, “Methods and compositions for modulating Ire1, SRC and ABL activity” (The Regents of the University of California, priority 2008, dated 2016).

Sequence of WT Abl (P00519 whole entry): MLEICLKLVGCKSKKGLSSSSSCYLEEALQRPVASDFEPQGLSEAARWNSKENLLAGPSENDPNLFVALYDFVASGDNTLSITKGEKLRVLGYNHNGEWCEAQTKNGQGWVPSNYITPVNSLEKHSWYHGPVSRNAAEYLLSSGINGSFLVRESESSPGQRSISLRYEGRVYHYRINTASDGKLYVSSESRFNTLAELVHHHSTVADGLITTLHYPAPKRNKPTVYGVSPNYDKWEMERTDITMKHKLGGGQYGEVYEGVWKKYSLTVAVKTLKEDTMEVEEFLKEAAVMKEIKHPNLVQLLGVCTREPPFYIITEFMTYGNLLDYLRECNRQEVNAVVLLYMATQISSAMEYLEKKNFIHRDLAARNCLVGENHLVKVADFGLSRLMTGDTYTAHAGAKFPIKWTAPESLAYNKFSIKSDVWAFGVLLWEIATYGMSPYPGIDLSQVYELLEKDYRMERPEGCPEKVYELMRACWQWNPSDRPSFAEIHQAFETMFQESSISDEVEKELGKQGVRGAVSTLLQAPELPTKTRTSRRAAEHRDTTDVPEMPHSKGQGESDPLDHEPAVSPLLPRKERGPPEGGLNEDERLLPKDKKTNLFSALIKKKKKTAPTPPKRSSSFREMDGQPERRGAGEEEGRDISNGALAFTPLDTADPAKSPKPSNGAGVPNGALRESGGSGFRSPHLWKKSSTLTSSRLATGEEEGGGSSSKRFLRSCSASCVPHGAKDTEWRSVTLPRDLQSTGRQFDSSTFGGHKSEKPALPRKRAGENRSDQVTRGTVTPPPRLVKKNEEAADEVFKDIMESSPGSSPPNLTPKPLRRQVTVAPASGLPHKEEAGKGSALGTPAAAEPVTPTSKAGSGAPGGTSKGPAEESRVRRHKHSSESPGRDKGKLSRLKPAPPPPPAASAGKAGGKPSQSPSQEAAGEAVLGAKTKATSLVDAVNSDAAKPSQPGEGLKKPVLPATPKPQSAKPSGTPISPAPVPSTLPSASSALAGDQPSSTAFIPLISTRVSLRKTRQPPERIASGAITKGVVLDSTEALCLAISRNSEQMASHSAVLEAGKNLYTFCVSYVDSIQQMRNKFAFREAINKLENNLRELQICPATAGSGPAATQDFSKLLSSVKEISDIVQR
Sequence of human Ire1 (O75460 19-977): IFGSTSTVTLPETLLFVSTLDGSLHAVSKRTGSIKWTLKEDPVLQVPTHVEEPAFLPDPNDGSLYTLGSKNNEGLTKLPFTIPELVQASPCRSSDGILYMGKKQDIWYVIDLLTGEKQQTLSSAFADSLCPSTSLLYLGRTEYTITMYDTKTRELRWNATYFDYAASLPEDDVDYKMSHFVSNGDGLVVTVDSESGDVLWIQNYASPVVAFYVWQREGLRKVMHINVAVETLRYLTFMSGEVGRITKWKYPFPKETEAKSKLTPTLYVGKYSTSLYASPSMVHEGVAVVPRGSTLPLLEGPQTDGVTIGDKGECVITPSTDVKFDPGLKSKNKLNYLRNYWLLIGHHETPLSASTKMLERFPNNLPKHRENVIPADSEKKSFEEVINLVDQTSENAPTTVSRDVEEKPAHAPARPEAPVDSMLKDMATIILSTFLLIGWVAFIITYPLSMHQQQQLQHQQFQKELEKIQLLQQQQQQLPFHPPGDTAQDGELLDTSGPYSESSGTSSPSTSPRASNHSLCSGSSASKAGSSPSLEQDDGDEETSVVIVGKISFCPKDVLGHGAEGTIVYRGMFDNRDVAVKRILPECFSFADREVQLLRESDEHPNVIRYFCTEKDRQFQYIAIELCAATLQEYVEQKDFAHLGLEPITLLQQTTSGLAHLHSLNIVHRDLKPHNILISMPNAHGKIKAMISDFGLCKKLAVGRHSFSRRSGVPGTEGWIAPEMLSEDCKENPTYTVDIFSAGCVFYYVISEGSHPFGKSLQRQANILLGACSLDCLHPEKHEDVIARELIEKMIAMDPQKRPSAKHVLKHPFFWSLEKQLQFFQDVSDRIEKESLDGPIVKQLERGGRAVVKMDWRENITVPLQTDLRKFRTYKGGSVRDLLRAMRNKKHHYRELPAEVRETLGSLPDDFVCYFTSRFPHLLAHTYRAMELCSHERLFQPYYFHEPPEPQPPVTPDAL

One may read the IC50 as the concentration at which inhibition is half-maximal. With `O=C(Nc1ccc(Nc2nccc(Nc3cc(C4CC4)n[nH]3)n2)cc1)c1cccc(C(F)(F)F)c1` [AD74, N-(4-(4-(3-cyclopropyl-1H-pyrazol-5-ylamino)pyrimidin-2-ylamino)phenyl)-3-(trifluoromethyl)benzamide], the “activation of Ire1” value in assay [1] is given as “significant activation”. Also, the “In vitro cleavage of 32P-stem-loop RNA by human Ire1” value (from here on “In vitro cleavage”) in assay [2] was 0.0877. Also, the IC50 in assay [3] worked out at 357 nM; in assay [4], 2150 nM.

Turning to `O=C(Nc1ccc(Nc2nccc(Nc3cc(C4CC4)n[nH]3)n2)cc1)Nc1cccc(C(F)(F)F)c1` [AD75, 1-(4-(4-(3-cyclopropyl-1H-pyrazol-5-ylamino)pyrimidin-2-ylamino)phenyl)-3-(3-(trifluoromethyl)phenyl)urea], the “activation of Ire1” value in assay [1] is on record as “significant activation”. Besides, the “In vitro cleavage” value in assay [2] was 0.2317. Further, the IC50 in assay [3] stood at 170 nM; in assay [4], 2430 nM.

In the case of `O=C(Nc1cccc(Nc2nccc(Nc3cc(C4CC4)n[nH]3)n2)c1)c1cccc(C(F)(F)F)c1` [AD76, N-(3-(4-(3-cyclopropyl-1H-pyrazol-5-ylamino)pyrimidin-2-ylamino)phenyl)-3-(trifluoromethyl)benzamide], the “activation of Ire1” value in assay [1] was “significant activation”. In addition, the “In vitro cleavage” value in assay [2] is on record as 0.0139. Besides, the IC50 in assay [3] is 138 nM; in assay [4] it was 4960 nM.

On to `O=C(Nc1cccc(Nc2nccc(Nc3cc(C4CC4)n[nH]3)n2)c1)Nc1cccc(C(F)(F)F)c1` [AD77, 1-(3-(4-(3-cyclopropyl-1H-pyrazol-5-ylamino)pyrimidin-2-ylamino)phenyl)-3-(3-(trifluoromethyl)phenyl)urea], for which, in assay [1], the “activation of Ire1” value is recorded as “significant activation”. In addition, in assay [2], the “In vitro cleavage” value is recorded as 0.0239. Further, the IC50 in assay [3] was found to be 442 nM; in assay [4], 36800 nM.

In the case of `Nc1ncnc2c1ncn2[C@@H]1O[C@H](COP(=O)(O)OP(=O)(O)O)[C@@H](O)[C@H]1O` [ADP, reference compound], the “effect of EDTA (chelation of magnesium) on RNase activity of Ire1KR32 stimulated by the substance” value in assay [5] is “decreased by greater than an order of magnitude”. In assay [5] (HP21 substrate, Ire1KR, Ire1KR24, Ire1KR32 (FIG. 1D)), the “increase of specific RNase activity by co-factor” value is “two orders of magnitude”.

In the case of `N#CCc1ccc(Nc2nccc(Nc3cc(C4CC4)[nH]n3)n2)cc1` [APY24], the “% splicing mRNA XBP-I Average” value in assay [6] (Tm 0.3 ug/ml + compound 2 μM) was 28%; in assay [6] (compound 2 μM) it was 30%; in assay [6] (compound 10 μM) it was 44%. Further, the “in vivo activation of Ire1” value in assay [6] (summary statement) is recorded as “significant in vivo activation”. The “% fold induction to Control” value in assay [7] (Tm 0.3 ug/ml + compound 2 uM) is recorded as −2%; in assay [7] (compound 2 uM), 6%. Besides, the Mean fluorescence in assay [7] (Tm 0.3 ug/ml + compound 2 uM) is recorded as 2387; in assay [7] (compound 2 uM) it was 2569. The “activation of Ire1” value in assay [1] is “significant activation”. In addition, the “RNA cleavage (yIre1 activation)” value in assay [8] was found to be 0.04667. The “activation of the RNase of Ire1KR32” value in assay [5] is reported as “Potent activators”.

As to `c1cc(Nc2cc(C3CC3)[nH]n2)nc(Nc2ccc3[nH]cnc3c2)n1` [APY29], the “% splicing mRNA XBP-I Average” value in assay [6] (Tm 0.3 ug/ml + compound 2 μM) is 40%; in assay [6] (compound 2 μM) it was 10%; in assay [6] (compound 10 μM), 14%. Further, the “% fold induction to Control” value in assay [7] (Tm 0.3 ug/ml + compound 2 uM) was 65%; in assay [7] (compound 2 uM) it was 11%. The Mean fluorescence in assay [7] (Tm 0.3 ug/ml + compound 2 uM) is listed as 4016; in assay [7] (compound 2 uM), 2697. The “activation of Ire1” value in assay [1] was “significant activation”. The “RNA cleavage (yIre1 activation)” value in assay [8] is listed as 0.07509. Also, in assay [5], the “activation of the RNase of Ire1KR32” value is listed as “Potent activators”. Moreover, the “effect of EDTA (chelation of magnesium) on RNase activity of Ire1KR32 stimulated by the substance” value in assay [5] was “remained unchanged”.
